Measured values reported in patent US20220125793A1, “CANCER THERAPY USING 3,5-DISUBSTITUTED BENZENE ALKYNYL COMPOUND AND IMMUNE CHECKPOINT INHIBITOR” (TAIHO PHARMACEUTICAL CO., LTD., priority 2019, published 2022).

B1: vofatamab: an anti-FGFR3 antibody (antibody, chains of the INN, looked up, V domains shown)
VH: EVQLVESGGGLVQPGGSLRLSCAASGFTFTSTGISWVRQAPGKGLEWVGRIYPTSGSTNYADSVKGRFTISADTSKNTAYLQMNSLRAEDTAVYYCARTYGIYDLYVDYTEYVMDYWGQGTLVTVSS
VL: DIQMTQSPSSLSASVGDRVTITCRASQDVDTSLAWYKQKPGKAPKLLIYSASFLYSGVPSRFSGSGSGTDFTLTISSLQPEDFATYYCQQSTGHPQTFGQGTKVEIK

Experiments:
[1] = test system: mouse breast cancer cell line 4T1 subcutaneously implanted model; assay: Influence on tumor immunity in model subcutaneously implanted with mouse breast cancer cell 4T1; format: in vivo, BALB/cAJcl mouse; conditions: Day 15
Experimental: Mouse breast cancer cell line 4T1 was subcutaneously implanted in a 6-week-old male BALB/cAJcl mouse. […] On the day following the final administration (Day 15), lymphocyte fractions were isolated from the tumor, spleen, and peripheral blood, and myeloid-derived suppressor cells (MDSCs) (CD11b^+/Gr−1^+ cells), CD4-positive T cells, and CD8-positive T cells were measured using a cell sorter.

urothelial cancer = conditions: cited from earlier work
[2] = 15 and 30 mg/kg/day oral, daily for 14 days, compared with control

Row | Molecule | CD4-positive T cells in the peripheral blood lymphocyte fractions [1, 2] | CD8-positive T cells in the peripheral blood lymphocyte fractions [1, 2] | CD8-positive T cells in the spleen lymphocyte fractions [1, 2] | MDSCs in the peripheral blood lymphocyte fractions [1, 2] | MDSCs (CD11b+/Gr-1+ cells) in the spleen lymphocyte fractions ([1]; any dose (15 or 30 mg/kg/day oral, daily for 14 days), compared with non-drug administration control, Student's t-test P<0.01) | response in patients without FGFR genetic aberration (urothelial cancer; combined use with pembrolizumab) | sensitivity state of the cancer to immune checkpoint inhibitors (urothelial cancer; urothelial cancer patients, vofatamab administration)
1 | C=CC(=O)N1CC[C@H](n2nc(C#Cc3cc(OC)cc(OC)c3)c3c(N)ncnc32)C1 [compound 1, (S)-1-(3-(4-amino-3-((3,5-dimethoxyphenyl)ethynyl)-1H-pyrazolo[3,4-d]pyrimidin-1-yl)pyrrolidin-1-yl)prop-2-en-1-one] | tended to increase in a dose-dependent manner | tended to increase in a dose-dependent manner | tended to increase in a dose-dependent manner | tended to decrease in a dose-dependent manner | significant reduction |  | 
2 | B1 |  |  |  |  |  | response by combined use with pembrolizumab is observed | change from a “cold” state (low sensitivity to immune checkpoint inhibitors) to a “hot” state (high sensitivity to immune checkpoint inhibitors)
